Earlier results, collected in US20250000878A1 (priority 2014, published 2025).

What was measured:
beta amyloid = conditions: AD transgenic mice
[1] = in vivo
[2] = system: patients with possible or probable AD; conditions: 0.1-0.2 mg twice daily, active group
[3] = system: patients with mild to moderate VaD; conditions: 100 mcg twice daily for 12 weeks
[4] = 0.2 mg pure huperzine A orally

## Cn1c(=O)c2c(ncn2C)n(C)c1=O [Caffeine]
Beta amyloid
  reduction of beta amyloid deposition, entorhinal cortex: 46%
  reduction of beta amyloid deposition, hippocampus: 40%
[1]
  half life: 4 to 6 h
  time to peak blood levels: within one hour

## C/C=C1\[C@H]2C=C(C)C[C@]1(N)c1ccc(=O)[nH]c1C2 [Huperzine A]
[2]
  proportion of patients with a four point improvement on the ADAS-cog: 56%
[3]
  cognitive function: significantly improved
[4]
  terminal half life: approximately 6 hours

## C[C@]12CC[C@H](O)CC1=CC[C@@H]1[C@@H]2CC[C@]2(C)C(=O)CC[C@@H]12 [DHEA, dehydroepiandrosterone]
Elderly men and women; 50 mg per day, one year
  insulin resistance: significant improvement
Elderly men and women; 50 mg per day, one year, mean age 70 years
  reduction of visceral fat measured by MRI: about 10%
Elderly men and women; vs placebo controls
  circulating cytokines TNF alpha and IL-6: significant decrease
